{"source": "patent US20240207243A1", "about": "“METHOD OF TREATING LAMINOPATHIES” (Eiger Biopharmaceuticals, Inc., priority 2019, published 2024)", "key": {"[1]": {"experiment": "Multiple-dose lonafarnib PK (100 mg twice daily) in loperamide study", "type": "in vivo, human"}, "[2]": {"experiment": "Food-effect evaluation of single-dose LNF", "type": "in vivo, human", "description": "To evaluate the effect of a high-fat/high-calorie standard breakfast on the single-dose PK of LNF relative to a fasted state in healthy subjects (Group 2).\nTo evaluate the effect of a low-fat/low-calorie breakfast on the single-dose PK of LNF relative to a fasted state in healthy subjects (Group 2).\nThe effect of food (high-fat/high-calorie standard breakfast and low-fat/low-calorie breakfast) on the single-dose PK of LNF relative to the single-dose PK of LNF when administered under fasted conditions was evaluated.\n• Period 1: Oral dose of LNF (75-mg capsule×1) on Day 1 (AM) under fed conditions (high-fat/high-calorie breakfast) • Period 2: Oral dose of LNF (75-mg capsule×1) on Day 4 (AM) under fed conditions (low-fat/low-calorie breakfast) • Period 3: Oral dose of LNF (75-mg capsule×1) on Day 7 (AM) under fasted conditions"}, "CYP3A [3]": {"tested_on": "CYP3A", "experiment": "Co-administration of lonafarnib with ketoconazole, a strong CYP3A inhibitor", "type": "in vivo, human", "conditions": "co-administered with ketoconazole 200 mg twice daily"}, "[4]": {"experiment": "Renal clearance and renal impairment study of lonafarnib", "type": "in vivo, human", "description": "Lonafarnib is renally cleared <1% and no meaningful differences would be expected in subjects with renal impairment. […] Thus, lonafarnib is […]."}, "CYP3A [5]": {"tested_on": "CYP3A", "experiment": "In vitro and in vivo CYP inhibition studies (CYP3A)", "description": "The following medicines are contraindicated when used with lonafarnib and unless otherwise noted, the contraindication is based on the potential for lonafarnib to inhibit metabolism of the co-administered medicinal product, resulting in increased exposure to the co-administered medicinal product and risk of clinically significant adverse effects.\n(§1) Concomitant administration of lonafarnib with sensitive CYP3A or CYP2C19 substrates and strong or moderate CYP3A4 inhibitors or inducers, including herbal supplements can increase exposure of the co-administered medicinal product or lonafarnib resulting in risk of clinically significant adverse events or decrease exposure of lonafarnib, which may impact efficacy. Medicinal products that are sensitive CYP3A or CYP2C19 substrates, strong or moderate CYP3A inhibitors, or strong or moderate CYP3A inducers should be discontinued. If treatment cannot safety be discontinued or an alternative drug is not available, lonafarnib should be stopped during the course of treatment unless the benefit outweighs the possible risks."}, "CYP2C19 [6]": {"target": "T1, CYP2C19 (Homo sapiens, UniProt P33261)", "T1 sequence (P33261 whole entry)": "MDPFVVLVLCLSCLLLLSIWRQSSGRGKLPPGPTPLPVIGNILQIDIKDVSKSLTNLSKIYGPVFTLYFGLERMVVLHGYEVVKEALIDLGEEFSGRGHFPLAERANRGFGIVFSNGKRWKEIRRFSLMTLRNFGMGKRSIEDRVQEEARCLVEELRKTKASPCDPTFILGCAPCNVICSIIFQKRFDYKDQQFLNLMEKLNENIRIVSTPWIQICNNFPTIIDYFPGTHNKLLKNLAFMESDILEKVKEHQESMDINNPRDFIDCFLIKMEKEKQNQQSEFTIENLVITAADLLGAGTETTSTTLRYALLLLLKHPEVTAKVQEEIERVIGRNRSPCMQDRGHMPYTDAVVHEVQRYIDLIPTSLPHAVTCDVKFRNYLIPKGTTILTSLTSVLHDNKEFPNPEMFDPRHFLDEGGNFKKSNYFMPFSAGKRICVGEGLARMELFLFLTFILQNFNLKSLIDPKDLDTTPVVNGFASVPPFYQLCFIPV", "experiment": "In vitro and in vivo CYP inhibition studies (CYP2C19)", "description": "as §1"}, "CYP3A4": {"target": "CYP3A4 (Homo sapiens, UniProt P08684)", "sequence (P08684 whole entry)": "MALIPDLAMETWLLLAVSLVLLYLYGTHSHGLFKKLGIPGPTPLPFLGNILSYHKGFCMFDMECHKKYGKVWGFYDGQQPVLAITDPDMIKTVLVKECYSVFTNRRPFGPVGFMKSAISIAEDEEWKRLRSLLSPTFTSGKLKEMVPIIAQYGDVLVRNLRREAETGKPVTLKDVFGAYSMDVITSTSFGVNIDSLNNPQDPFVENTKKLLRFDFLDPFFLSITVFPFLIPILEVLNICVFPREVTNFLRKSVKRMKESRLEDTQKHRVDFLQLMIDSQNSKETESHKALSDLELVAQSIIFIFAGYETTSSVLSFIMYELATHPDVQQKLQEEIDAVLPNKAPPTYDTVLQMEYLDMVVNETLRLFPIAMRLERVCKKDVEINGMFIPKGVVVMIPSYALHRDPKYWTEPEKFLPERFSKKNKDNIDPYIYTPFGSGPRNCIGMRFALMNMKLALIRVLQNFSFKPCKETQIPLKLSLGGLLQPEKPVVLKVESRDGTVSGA", "experiment": "Metabolism of lonafarnib", "description": "Lonafarnib has not been studied in subjects with hepatic impairment."}, "[7]": {"conditions": "in vivo", "procedure": "(§2) This study was conducted as an open-label, drug-drug interaction (DDI) study, a food-effect study with LNF alone, and a food-effect study with LNF+ritonavir (RTV). This study assessed the effects of multiple-dose LNF (75 mg twice daily×5 days) on the PK of single dose omeprazole (1×40-mg capsule) relative to omeprazole alone in.\nOther sensitive CYP2C19 substrates should be monitored during concomitant administration with LNF. […] Extent of exposure was 6,200 ng·h/mL and the T1/2 was 5.57 hours. Trough LNF concentrations increased from Day 7 to Day 9 (AM). By Day 10 trough levels stabilized, indicating steady-state LNF levels were achieved over 5 days of consecutive dosing. […] There were no deaths, SAEs, or other significant AEs. All AEs were Grade 1 or 2."}, "P-gp": {"target": "P-gp (Homo sapiens, UniProt P08183)", "sequence (P08183 whole entry)": "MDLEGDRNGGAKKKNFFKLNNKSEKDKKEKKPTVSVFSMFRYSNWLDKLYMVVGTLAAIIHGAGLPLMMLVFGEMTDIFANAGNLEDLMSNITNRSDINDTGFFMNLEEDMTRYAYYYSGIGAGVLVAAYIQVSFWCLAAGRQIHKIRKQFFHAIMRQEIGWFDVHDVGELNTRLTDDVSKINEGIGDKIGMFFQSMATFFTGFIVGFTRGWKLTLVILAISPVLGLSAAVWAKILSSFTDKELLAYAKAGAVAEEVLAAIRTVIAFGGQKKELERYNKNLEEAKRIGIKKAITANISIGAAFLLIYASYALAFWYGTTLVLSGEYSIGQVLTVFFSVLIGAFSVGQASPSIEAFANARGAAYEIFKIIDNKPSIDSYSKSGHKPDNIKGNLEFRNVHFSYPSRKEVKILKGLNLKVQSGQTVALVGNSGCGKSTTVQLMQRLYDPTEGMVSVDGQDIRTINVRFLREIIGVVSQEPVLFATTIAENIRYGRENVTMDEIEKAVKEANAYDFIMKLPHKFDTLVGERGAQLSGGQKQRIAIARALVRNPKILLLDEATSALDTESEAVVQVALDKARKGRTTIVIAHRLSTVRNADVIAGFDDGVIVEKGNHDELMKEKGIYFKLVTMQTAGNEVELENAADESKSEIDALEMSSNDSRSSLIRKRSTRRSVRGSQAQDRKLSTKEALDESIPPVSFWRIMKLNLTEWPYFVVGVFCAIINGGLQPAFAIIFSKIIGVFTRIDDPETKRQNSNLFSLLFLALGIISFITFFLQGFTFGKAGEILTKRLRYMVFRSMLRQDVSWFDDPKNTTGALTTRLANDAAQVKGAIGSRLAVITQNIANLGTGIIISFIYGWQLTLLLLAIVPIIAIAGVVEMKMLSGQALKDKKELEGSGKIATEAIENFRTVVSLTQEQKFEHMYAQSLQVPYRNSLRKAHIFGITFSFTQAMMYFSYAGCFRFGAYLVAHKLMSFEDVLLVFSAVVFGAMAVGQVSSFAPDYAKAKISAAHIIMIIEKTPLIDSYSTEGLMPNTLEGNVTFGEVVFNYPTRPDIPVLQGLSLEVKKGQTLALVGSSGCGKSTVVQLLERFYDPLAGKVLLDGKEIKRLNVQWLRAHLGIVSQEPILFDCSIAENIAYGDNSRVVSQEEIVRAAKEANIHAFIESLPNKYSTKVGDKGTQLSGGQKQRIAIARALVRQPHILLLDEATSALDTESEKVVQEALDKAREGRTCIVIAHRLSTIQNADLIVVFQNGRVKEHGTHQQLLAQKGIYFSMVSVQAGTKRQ", "conditions": "in vivo"}, "CYP2C19 [8]": {"target": "T1, CYP2C19", "experiment": "Drug-drug interaction study: multiple-dose LNF on PK of single-dose omeprazole", "type": "in vivo", "design": "single-dose omeprazole, a sensitive CYP2C19 substrate; endogenous in cells; host or cells: study subjects in vivo", "conditions": "for CYP2C19 inhibition in vivo (classification): lonafarnib 75 mg twice daily, omeprazole probe", "procedure": "as §2"}, "CYP3A [9]": {"tested_on": "CYP3A"}, "[10]": {"experiment": "Safety and tolerability in loperamide interaction study"}, "CYP3A [11]": {"tested_on": "CYP3A", "experiment": "Drug-drug interaction study: multiple-dose lonafarnib on pharmacokinetics of single-dose midazolam", "conditions": "human, in vivo, 100 mg", "description": "(§3) An open-label, single-center, two-period, single-sequence, multi-drug-drug interaction study to evaluate the effects of multiple-dose lonafarnib on the pharmacokinetics of single-dose midazolam, a sensitive cytochrome p450-3a substrate.\n(§4) Given the profound increase, sensitive substrates of CYP3A should be contraindicated with lonafarnib."}, "cytochrome P450 CYP3A": {"tested_on": "cytochrome P450 CYP3A", "experiment": "Drug-drug interaction study: multiple-dose lonafarnib on pharmacokinetics of single-dose midazolam", "description": "as §3, §4"}, "[12]": {"conditions": "co-administered with lonafarnib vs midazolam alone"}, "[13]": {"conditions": "lonafarnib 75 mg twice daily co-administered"}, "[14]": {"conditions": "single-dose omeprazole with multiple-dose LNF"}, "[15]": {"conditions": "with multiple-dose LNF vs alone"}}, "note": "Entries after “also recorded” stand apart in the source; their conditions may differ."}
{"molecule": "NC(=O)N1CCC(CC(=O)N2CCC([C@H]3c4ncc(Br)cc4CCc4cc(Cl)cc(Br)c43)CC2)CC1", "note": "[lonafarnib]", "values": [{"measurement": "Cmax", "setting": "[1]; human, in vivo, steady state", "result": 964, "unit": "ng/mL"}, {"measurement": "half-life", "setting": "[1]; human, in vivo, steady state, read-out: lonafarnib T1/2 (converted)", "result": 4.22, "unit": "h"}, {"measurement": "lonafarnib extent of exposure", "setting": "[1]; steady state", "result": "6,940 ng·h/mL"}, {"measurement": "study day by which steady state was achieved", "setting": "[1]; trough lonafarnib concentrations", "result": "≤ 8", "unit": "days"}, {"measurement": "LNF CL/F higher than fasted state", "setting": "[2]; single 75 mg dose, 2 fed states vs fasted", "result": "33-35%"}, {"measurement": "decrease of LNF exposure (AUC0-t and AUC0-inf)", "setting": "[2]; single 75 mg dose, fed states vs fasted", "result": "21-29%"}, {"measurement": "LNF Cmax decrease relative to fasted state", "setting": "[2]; single 75 mg dose, high-fat/high-calorie breakfast", "result": 55, "unit": "%"}, {"measurement": "LNF Cmax decrease relative to fasted state", "setting": "[2]; single 75 mg dose, low-fat/low-calorie breakfast", "result": 25, "unit": "%"}, {"measurement": "LNF Tmax relative to fasted state", "setting": "[2]; single dose with high-fat/high-calorie or low-fat/low-calorie meal", "result": "delayed"}, {"measurement": "lonafarnib AUC increase", "setting": "CYP3A [3]", "result": "approximately 5 fold"}, {"measurement": "lonafarnib Cmax increase", "setting": "CYP3A [3]", "result": "approximately 3.6 fold"}, {"measurement": "fraction renally cleared", "setting": "[4]; in vivo", "result": "< 1", "unit": "%"}, {"measurement": "lonafarnib exposure in renal impairment", "setting": "[4]; subjects with severe renal impairment", "result": "exposures increase"}, {"measurement": "CYP3A inhibition (classification)", "setting": "CYP3A [5]", "result": "potent CYP3A time-dependent and mechanism based inhibitor"}, {"measurement": "CYP2C19 inhibition (classification)", "setting": "CYP2C19 [6]", "result": "moderate CYP2C19 inhibitor"}, {"measurement": "route of metabolism", "setting": "CYP3A4", "result": "extensively metabolised via the cytochrome P450 enzyme system in the liver; also recorded: metabolized predominantly via CYP3A4 enzyme"}, {"measurement": "adverse event incidence", "setting": "[7]", "result": "More subjects experienced AEs taking LNF"}, {"measurement": "P-gp inhibition (classification)", "setting": "P-gp", "result": "weak P-gp inhibitor"}, {"measurement": "CYP2C19 inhibition in vivo (classification)", "setting": "CYP2C19 [8]", "result": "moderate CYP2C19 inhibitor"}, {"measurement": "CYP2C19 inhibition in vivo (classification)", "setting": "CYP2C19 [8]; listed as LNF", "result": "direct/reversible inhibition of CYP2C19 in a moderate magnitude"}]}
{"molecule": "CN(C)C(=O)C(CCN1CCC(O)(c2ccc(Cl)cc2)CC1)(c1ccccc1)c1ccccc1", "note": "[loperamide]", "values": [{"measurement": "increase of loperamide exposures (upper limit)", "setting": "CYP3A [9]; coadministration of lonafarnib with loperamide", "result": "up to 4.6 fold"}, {"measurement": "loperamide Cmax increase", "setting": "CYP3A [9]; single-dose loperamide 2 mg after lonafarnib 100 mg twice daily 5 days vs loperamide alone", "result": "~3", "unit": "fold"}, {"measurement": "loperamide Kel compared with loperamide alone", "setting": "CYP3A [9]; with multiple-dose lonafarnib", "result": "similar"}, {"measurement": "tolerability", "setting": "[10]; healthy subjects, lonafarnib 100 mg twice daily and loperamide 2 mg", "result": "generally tolerated lonafarnib and loperamide well"}, {"measurement": "GI adverse events vs lonafarnib alone", "setting": "[10]; loperamide coadministered with lonafarnib", "result": "fewer GI adverse events"}]}
{"molecule": "Cc1ncc2n1-c1ccc(Cl)cc1C(c1ccccc1F)=NC2", "note": "[midazolam]", "values": [{"measurement": "Tmax", "setting": "CYP3A [11]", "result": 0.5, "unit": "h"}, {"measurement": "midazolam AUC increase", "setting": "cytochrome P450 CYP3A; [12]", "result": "approximately 7 fold"}, {"measurement": "midazolam Cmax increase", "setting": "cytochrome P450 CYP3A; [12]", "result": "approximately 3 fold"}, {"measurement": "change in midazolam Cmax, AUC0-t and AUC0-inf", "setting": "cytochrome P450 CYP3A; single-dose midazolam with multiple-dose lonafarnib", "result": "increased statistically significantly"}]}
{"molecule": "COc1ccc2[nH]c([S+]([O-])Cc3ncc(C)c(OC)c3C)nc2c1", "note": "(stereo not shown) [omeprazole]", "values": [{"measurement": "change in omeprazole CL/F", "setting": "CYP2C19 [8]; coadministration with LNF", "result": "decreased"}, {"measurement": "change in omeprazole Kel", "setting": "CYP2C19 [8]; coadministration with LNF", "result": "decreased"}, {"measurement": "change in omeprazole T1/2", "setting": "CYP2C19 [8]; coadministration with LNF", "result": "increased"}, {"measurement": "omeprazole AUC increase", "setting": "CYP2C19 [8]; [13]", "result": "approximately 1.6 fold"}, {"measurement": "omeprazole Cmax increase", "setting": "CYP2C19 [8]; [13]", "result": "approximately 1.3 fold"}, {"measurement": "omeprazole Cmax increase", "setting": "CYP2C19 [8]; single-dose omeprazole 40 mg with multiple-dose LNF 75 mg twice daily 5 days", "result": 44, "unit": "%"}, {"measurement": "omeprazole AUC0-t and AUC0-inf increase", "setting": "CYP2C19 [8]; [14]", "result": "approximately 2 fold"}, {"measurement": "omeprazole Tmax with vs without LNF", "setting": "CYP2C19 [8]; [14]", "result": "approximately the same time"}, {"measurement": "omeprazole AUC0-inf geometric mean ratio (CI)", "setting": "CYP2C19 [8]; [15]", "result": "1.600 (1.32, 1.94)"}, {"measurement": "omeprazole AUC0-t geometric mean ratio (CI)", "setting": "CYP2C19 [8]; [15]", "result": "1.602 (1.34, 1.91)"}, {"measurement": "omeprazole Cmax geometric mean ratio (CI)", "setting": "CYP2C19 [8]; [15]", "result": "1.275 (1.01, 1.61)"}]}
